In patent US20240228512A1, “ACYCLIC OXAZEPINE COMPOUNDS COMPRISING A 6-AZA MOIETY AND USES THEREOF” (Genentech, Inc., priority 2022, published 2024):

Assays:
[1] = test system: H1975 cells; test: H1975 CTG proliferation assay; assay type: cell-based; settings: Homo sapiens, NCI-H1975, H1975, CTG
[2] = test system: SW620 cells; test: SW620 3D proliferation assay (CellTiter-Glo); assay type: cell-based; settings: Homo sapiens, SW-620, 168 h, SW620, 3D culture, 7 days, read-out: SW620 CTG IC50
Procedure: (§1) SW620 and HPAC 3D proliferation assays.
(§2) Compound potencies were assessed in proliferation assays conducted with SW620 and HPAC cell lines grown in 3D cultures. Cells were seeded into 96- or 384-well ultra-low attachment plates at 3000 or 1000 cells/well, respectively, in culture medium (RPMI-1640, 10% FBS, 2 mM L-glutamine). The plated cells were centrifuged briefly, allowed to rest for 30 minutes under ambient conditions, and cultured overnight at 37° C./5% CO2 to initiate the formation of spheroids. Compound dilutions were prepared across a range of concentrations in DMSO and added to the appropriate wells of the assay plates with a 333-fold dilution into the culture medium. The plates were further incubated for 7 days. The quantity of viable cells was assessed using CellTiter-Glo 3D Cell Viability Assay (Promega). The detection reagent penetrates the spheroids and lyses the cells. The released ATP that was detected with luciferase and a luciferase substrate to generate a luminescent readout. […] The data points were fit to a 4-parameter logistic equation to determine IC50 values.

[3] = test system: HPAC cells; test: HPAC 3D proliferation assay (CellTiter-Glo); assay type: cell-based; settings: Homo sapiens, 168 h, 3D culture, 7 days, read-out: HPAC CTG IC50
Procedure: as §1, §2

[4] = test system: SW620 PERK; test: SW620 PERK assay; assay type: cell-based; settings: Homo sapiens, SW-620, SW620, PERK
[5] = biological target: recombinant human KRAS wild type (SOS1-mediated nucleotide exchange) (Homo sapiens (Human), UniProt P01116); test: KRAS biochemical assay, BODIPY-GDP exchange TR-FRET (WT-GDP HTRF)
Procedure: [Worded in the source for another variant; this variant is reported under the same test.] KRAS Biochemical Assay—BODIPY-GDP Exchange TR-FRET.
Biochemical compound potencies were assessed by evaluating inhibition of SOS1-mediated nucleotide exchange in KRAS G12D. The SOS1-promoted exchange of fluorescently-labeled GDP (BOPIDY-GDP) was monitored by time-resolved fluorescence resonance energy transfer (TR-FRET). Compounds solubilized in DMSO were dispensed as concentration series into 384-well white assay plates. […] The reaction was initiated with the addition of 5 μL of 3 nM recombinant human SOS1 and 300 nM BODIPY-GDP in assay buffer. After a 60-minute incubation, the fluorescence was measured with excitation at 337 nm and emission at 490 and 520 nm. The TR-FRET ratio was determined as the fluorescence at 520 nm divided by the fluorescence at 490 nm multiplied by 10,000. […] The normalized TR-FRET results were plotted against compound concentration, and the data fit to a 4-parameter Hill equation to determine the IC50 values.

[6] = biological target: recombinant human mutant KRas G12V (SOS1-mediated nucleotide exchange) (Homo sapiens (Human), UniProt P01116, G12V); test: KRAS biochemical assay, BODIPY-GDP exchange TR-FRET (G12V-GDP HTRF)
recombinant human mutant KRas G12V (SOS1-mediated nucleotide exchange), sequence (P01116-2 other isoform, or with tags, fused parts or gaps G12V): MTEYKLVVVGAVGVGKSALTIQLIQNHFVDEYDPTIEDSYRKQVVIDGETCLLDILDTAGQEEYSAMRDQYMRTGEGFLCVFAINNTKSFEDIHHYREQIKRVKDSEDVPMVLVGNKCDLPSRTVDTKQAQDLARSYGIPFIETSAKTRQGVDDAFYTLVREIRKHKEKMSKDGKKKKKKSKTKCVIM

recombinant human KRAS wild type (SOS1-mediated nucleotide exchange), sequence (P01116-2 other isoform, or with tags, fused parts or gaps): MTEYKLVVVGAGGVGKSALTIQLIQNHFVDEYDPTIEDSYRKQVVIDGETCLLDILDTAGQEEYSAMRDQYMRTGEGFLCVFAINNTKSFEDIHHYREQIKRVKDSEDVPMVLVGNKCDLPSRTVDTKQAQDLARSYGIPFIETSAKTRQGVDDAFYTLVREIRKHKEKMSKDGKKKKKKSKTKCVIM

SMILES | IC50 [1] | IC50 [2] | IC50 [3] | IC50 [4] | IC50 [5] | IC50 [6]
Cc1c(F)c(N)cc(-c2nc3c4c(nc(OC[C@@]56CCCN5C[C@H](F)C6)nc4c2Cl)N([C@H](C)c2cccnc2N)CCO3)c1C(F)(F)F [Example 32, 3-((R)-1-(5-(5-amino-4-fluoro-3-methyl-2-(trifluoromethyl)phenyl)-4-chloro-2-(((2R,7aS)-2-fluorotetrahydro-1H-pyrrolizin-7a(5H)-yl)methoxy)-8,9-dihydro-10H-7-oxa-1,3,6,10-tetraazacyclohepta[de]naphthalen-10-yl)ethyl)pyridin-2-amine] | 7.12 nM | 2.25 nM | 18.7 nM | 2.45 nM |  | 
Cc1c(F)c(N)cc(-c2nc3c4c(nc(OC[C@@]56CCCN5C[C@H](F)C6)nc4c2F)N([C@H](C)c2nccnc2N)CCO3)c1C(F)(F)F [Example 9, 3-((R)-1-(5-(5-amino-4-fluoro-3-methyl-2-(trifluoromethyl)phenyl)-4-fluoro-2-(((2R,7aS)-2-fluorotetrahydro-1H-pyrrolizin-7a(5H)-yl)methoxy)-8,9-dihydro-10H-7-oxa-1,3,6,10-tetraazacyclohepta[de]naphthalen-10-yl)ethyl)pyrazin-2-amine] | 11.2 nM | 26.2 nM | 74.7 nM | 19.3 nM |  | 
Cc1cc(N)c(F)c(-c2nc3c4c(nc(OC[C@@]56CCCN5C[C@H](F)C6)nc4c2F)N([C@H](C)c2nccnc2N)CCO3)c1C(F)(F)F [Example 23, 3-((1R)-1-(5-(3-amino-2-fluoro-5-methyl-6-(trifluoromethyl)phenyl)-4-fluoro-2-(((2R,7aS)-2-fluorotetrahydro-1H-pyrrolizin-7a(5H)-yl)methoxy)-8,9-dihydro-10H-7-oxa-1,3,6,10-tetraazacyclohepta[de]naphthalen-10-yl)ethyl)pyrazin-2-amine] | 32.5 nM | 31.6 nM | 92 nM | 7.33 nM |  | 
Cc1c(F)c(N)c(F)c(-c2nc3c4c(nc(OC[C@@H]5CCCN5C)nc4c2F)N([C@H](C)c2cccnc2N)CCO3)c1C(F)(F)F [Example 624, 3-((1R)-1-(5-(3-amino-2,4-difluoro-5-methyl-6-(trifluoromethyl)phenyl)-4-fluoro-2-(((S)-1-methylpyrrolidin-2-yl)methoxy)-8,9-dihydro-10H-7-oxa-1,3,6,10-tetraazacyclohepta[de]naphthalen-10-yl)ethyl)pyridin-2-amine] | 363 nM | 11.5 nM | 70.5 nM | 5.56 nM |  | 
Cc1c(F)c(N)cc(-c2nc3c4c(nc(OC[C@@H]5CC[C@H]6COCCN65)nc4c2F)N([C@H](C)c2nccnc2N)CCO3)c1C(F)(F)F [Example 10, 3-((R)-1-(5-(5-amino-4-fluoro-3-methyl-2-(trifluoromethyl)phenyl)-4-fluoro-2-(((6S,8aS)-hexahydro-1H-pyrrolo[2,1-c][1,4]oxazin-6-yl)methoxy)-8,9-dihydro-10H-7-oxa-1,3,6,10-tetraazacyclohepta[de]naphthalen-10-yl)ethyl)pyrazin-2-amine] | 53.4 nM | 114 nM | 439 nM | 29.9 nM |  | 
Cc1c(F)c(N)c(F)c(-c2nc3c4c(nc(OC[C@@]56CCCN5C[C@H](F)C6)nc4c2F)N([C@H](C)c2nccnc2N)CCO3)c1C(F)(F)F [Example 13, 3-((1R)-1-(5-(3-amino-2,4-difluoro-5-methyl-6-(trifluoromethyl)phenyl)-4-fluoro-2-(((2R,7aS)-2-fluorotetrahydro-1H-pyrrolizin-7a(5H)-yl)methoxy)-8,9-dihydro-10H-7-oxa-1,3,6,10-tetraazacyclohepta[de]naphthalen-10-yl)ethyl)pyrazin-2-amine] | 73.4 nM | 26.7 nM |  |  |  | 
Cc1nc(N)c(Cl)c(-c2nc3c4c(nc(OC[C@@]56CCCN5C[C@H](F)C6)nc4c2F)N([C@H](C)c2cccnc2N)CCO3)c1C(F)(F)F (single isomer, unassigned) [Example 601a] | 47.6 nM | 6.14 nM |  |  | 0.255 nM | 0.07 nM
C[C@H](c1cccnc1N)N1CCOc2nc(-c3cncc4cccc(Cl)c34)c(F)c3nc(OC[C@@]45CCCN4C[C@H](F)C5)nc1c23 [Example 19, 3-((R)-1-(5-(5-chloroisoquinolin-4-yl)-4-fluoro-2-(((2R,7aS)-2-fluorotetrahydro-1H-pyrrolizin-7a(5H)-yl)methoxy)-8,9-dihydro-10H-7-oxa-1,3,6,10-tetraazacyclohepta[de]naphthalen-10-yl)ethyl)pyridin-2-amine] |  |  |  | 112 nM | 6.93 nM | 0.85 nM
C[C@H](c1cccnc1N)N1CCOc2nc(-c3c(F)ccc4cnn(C)c34)c(F)c3nc(OC[C@@]45CCCN4C[C@H](F)C5)nc1c23 [Example 634, 3-((1R)-1-(4-fluoro-5-(6-fluoro-1-methyl-1H-indazol-7-yl)-2-(((2R,7aS)-2-fluorotetrahydro-1H-pyrrolizin-7a(5H)-yl)methoxy)-8,9-dihydro-10H-7-oxa-1,3,6,10-tetraazacyclohepta[de]naphthalen-10-yl)ethyl)pyridin-2-amine] | 3660 nM | 612 nM | 1750 nM | 85.2 nM |  | 
Cc1c(F)c(N)cc(-c2nc3c4c(nc(OC[C@@H]5CC(F)(F)CN5C)nc4c2F)N([C@H](C)c2cccnc2N)CCO3)c1C(F)(F)F [Example 20, 3-((R)-1-(5-(5-amino-4-fluoro-3-methyl-2-(trifluoromethyl)phenyl)-2-(((S)-4,4-difluoro-1-methylpyrrolidin-2-yl)methoxy)-4-fluoro-8,9-dihydro-10H-7-oxa-1,3,6,10-tetraazacyclohepta[de]naphthalen-10-yl)ethyl)pyridin-2-amine] | 421 nM | 30.3 nM | 484 nM | 8.59 nM |  | 
Cc1c(F)c(N)cc(-c2nc3c4c(nc(OC[C@@H]5CC(F)(F)CN5C)nc4c2F)N([C@H](C)c2nccnc2N)CCO3)c1C(F)(F)F [Example 8, 3-((R)-1-(5-(5-amino-4-fluoro-3-methyl-2-(trifluoromethyl)phenyl)-2-(((S)-4,4-difluoro-1-methylpyrrolidin-2-yl)methoxy)-4-fluoro-8,9-dihydro-10H-7-oxa-1,3,6,10-tetraazacyclohepta[de]naphthalen-10-yl)ethyl)pyrazin-2-amine] | 555 nM | 456 nM | 2000 nM | 139 nM |  | 
C[C@H](c1cccnc1N)N1CCOc2nc(-c3c(C(F)(F)F)cc(F)c(N)c3F)c(F)c3nc(OC[C@@]45CCCN4C[C@H](F)C5)nc1c23 [Example 621, 3-((1R)-1-(5-(3-amino-2,4-difluoro-6-(trifluoromethyl)phenyl)-4-fluoro-2-(((2R,7aS)-2-fluorotetrahydro-1H-pyrrolizin-7a(5H)-yl)methoxy)-8,9-dihydro-10H-7-oxa-1,3,6,10-tetraazacyclohepta[de]naphthalen-10-yl)ethyl)pyridin-2-amine] | 97.7 nM | 30.6 nM | 339 nM | 22.1 nM |  | 
Cc1nc(N)c(Cl)c(-c2nc3c4c(nc(OC[C@@]56CCCN5C[C@H](F)C6)nc4c2F)N([C@H](C)c2cccnc2N)CCO3)c1C(F)(F)F (single isomer, unassigned) [Example 601b] |  |  |  |  | 3.16 nM | 0.76 nM
Cc1c(F)c(N)cc(-c2nc3c4c(nc(OC[C@@]56CCCN5C[C@H](F)C6)nc4c2F)N([C@H](C)c2cccnc2N)CCO3)c1CC(F)F [Example 612, 3-((R)-1-(5-(5-amino-2-(2,2-difluoroethyl)-4-fluoro-3-methylphenyl)-4-fluoro-2-(((2R,7aS)-2-fluorotetrahydro-1H-pyrrolizin-7a(5H)-yl)methoxy)-8,9-dihydro-10H-7-oxa-1,3,6,10-tetraazacyclohepta[de]naphthalen-10-yl)ethyl)pyridin-2-amine] | 2500 nM | 28.4 nM | 359 nM | 15.6 nM |  | 
C#Cc1cccc2cc(O)cc(-c3nc4c5c(nc(OC[C@@]67CCCN6C[C@H](F)C7)nc5c3F)N([C@H](C)c3nccnc3N)CCO4)c12 [Example 11, 4-(10-((R)-1-(3-aminopyrazin-2-yl)ethyl)-4-fluoro-2-(((2R,7aS)-2-fluorotetrahydro-1H-pyrrolizin-7a(5H)-yl)methoxy)-9,10-dihydro-8H-7-oxa-1,3,6,10-tetraazacyclohepta[de]naphthalen-5-yl)-5-ethynyinaphthalen-2-ol] | 2.59 nM | 5.32 nM | 173 nM | 1.9 nM |  | 
